One experiment deals with CLK2 kinase (Homo sapiens, UniProt P49760). Kind of experiment: CLK2 kinase activity assay (Z-lyte FRET).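 Note: FRET read-out as coumarin to fluorescein emission ratio, unphosphorylated peptide as 0% and phosphorylated peptide as 100% controls, duplicate reactions, non-linear regression fit of dose-response curves.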 Type of experiment: biochemical. The following applies: Z-lyte Ser/Thr 6 peptide, 60 μM ATP, 1 h at room temperature.
A further experiment concerns the target CLK3 kinase (Homo sapiens, UniProt P49761). Put plainly: CLK3 kinase activity assay (Z-lyte FRET).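 Note: kinase activity read as coumarin/fluorescein emission ratio by FRET, unphosphorylated peptide as 0% and phosphorylated peptide as 100% control, values from non-linear regression of dose-response curves.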 Type of experiment: biochemical. Conditions: Z-lyte Ser/Thr 18 peptide, 156 μM ATP, 1 h at room temperature.
Experiment [1] concerns primary human mesenchymal stem cells (hMSCs). Kind of experiment: Chondrogenesis screening using primary human mesenchymal stem cells. Type of experiment: cell-based. The following applies: Homo sapiens, Mesenchymal stem cells, hMSC chondrogenesis; for EC50: concentration required to induce 50% levels of chondrogenesis with TGF-β3 as positive control, read-out: Conc (nM) of 50% TGF-β3 activity; for Emax: maximum activity relative to TGF-β3 (10 ng/mL) positive control, read-out: Max. Activity as % TGF-β3 activity. Summed up:
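Primary hMSCs at passage 3–6 were treated across compound concentrations, with TGF-β3 as positive control. Chondrogenic nodule area per well was normalized to 3 DMSO wells on the same plate (fold over DMSO, 2–3 replicates). EC50, maximum activity and the dose reaching it were derived.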

Experiment [2] relates to MMP-3 levels in supernatant of chondrocytes stimulated with IL1-β. Kind of experiment: Chondrocyte protection assay compound screening (MMP-3 LANCE Ultra). Type of experiment: cell-based, human. Conditions: Homo sapiens, Chondrocyte, IL1-β 10 ng/mL overnight, 11-point curves from 3 μM to 0.05 nM; for Emax: read-out: Maximum % Inhibition. In outline: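 Primary human chondrocytes (passage 2–5) in differentiation medium were stimulated with 10 ng/mL IL1-β for an overnight incubation at 37 °C. MMP-3 in 1:7-diluted supernatant was read by TR-FRET immunoassay against a standard curve, normalised to IL1-β-stimulated wells; EC50 and maximum % inhibition came from nonlinear regression.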
A general note: TR-FRET usually uses a lanthanide donor and a delayed reading to cut background.

Experiment [3] relates to Wnt pathway activity (SW480 colon carcinoma cells stably expressing the Sp5-Luc reporter). Put plainly: Wnt pathway activity screening assay (Sp5-Luc reporter gene assay). The following applies: Homo sapiens. In general terms: Reporter assays use an easily measured gene product as a stand-in for the process of interest.
Where [4] appears, read: SW480, Table 4, SW480 cells stably expressing Sp5-Luc reporter, 10-point dose-response from 10 μM, 36 to 48 hours.

This passage reports EC50 and Emax results from patent publication US20230000842A1, “METHODS OF TREATING CARTILAGE DISORDERS THROUGH INHIBITION OF CLK AND DYRK” (SAMUMED, LLC, priority 2019, published 2023).

CLK3 kinase, sequence (P49761 whole entry): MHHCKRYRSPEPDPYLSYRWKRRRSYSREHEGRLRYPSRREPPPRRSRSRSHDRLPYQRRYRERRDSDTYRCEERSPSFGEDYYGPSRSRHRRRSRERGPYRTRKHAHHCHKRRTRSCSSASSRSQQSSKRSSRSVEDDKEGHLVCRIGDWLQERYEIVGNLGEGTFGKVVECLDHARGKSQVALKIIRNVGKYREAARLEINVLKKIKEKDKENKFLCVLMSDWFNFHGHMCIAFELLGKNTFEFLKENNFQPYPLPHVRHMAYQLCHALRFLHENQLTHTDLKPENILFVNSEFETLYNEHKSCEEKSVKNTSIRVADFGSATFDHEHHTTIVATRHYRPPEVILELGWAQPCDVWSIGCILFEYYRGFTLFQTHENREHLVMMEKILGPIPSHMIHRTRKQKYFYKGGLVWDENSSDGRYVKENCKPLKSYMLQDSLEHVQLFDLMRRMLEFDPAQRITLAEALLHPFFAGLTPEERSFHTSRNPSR
CLK2 kinase, sequence (P49760 whole entry): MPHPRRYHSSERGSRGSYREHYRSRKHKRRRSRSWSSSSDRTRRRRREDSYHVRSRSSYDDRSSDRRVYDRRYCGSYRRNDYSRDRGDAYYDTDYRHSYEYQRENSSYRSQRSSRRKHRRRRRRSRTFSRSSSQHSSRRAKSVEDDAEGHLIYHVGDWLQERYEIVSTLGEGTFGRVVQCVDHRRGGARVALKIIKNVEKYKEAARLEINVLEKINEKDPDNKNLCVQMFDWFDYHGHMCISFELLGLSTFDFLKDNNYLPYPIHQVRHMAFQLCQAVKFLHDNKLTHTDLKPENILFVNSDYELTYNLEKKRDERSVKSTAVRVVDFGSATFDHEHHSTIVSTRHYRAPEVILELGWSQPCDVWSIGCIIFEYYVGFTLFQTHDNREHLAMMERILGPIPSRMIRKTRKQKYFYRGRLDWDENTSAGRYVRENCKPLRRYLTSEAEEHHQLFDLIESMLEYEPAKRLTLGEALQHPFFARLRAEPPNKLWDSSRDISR

As to `CN1CCN(c2cc(Nc3ncc4c(-c5ccc6ncccc6c5)c[nH]c4n3)ccn2)CC1` [compound 623], the EC50 on CLK2 kinase is 2 nM; at CLK3 kinase it was 10 nM; in experiment [1] it was 30 nM; in experiment [2] it was at least 9980 nM; in experiment [3] (setting [4]), 284 nM. Besides, the figures for the Emax in experiment [1] and in experiment [2] were 73.4% and 89.5%, respectively.

For `CN1CCN(c2cncc3[nH]c(-c4n[nH]c5ccc(-c6cncc(CNCc7ccccc7)c6)cc45)cc23)CC1` [compound 490], the EC50 at CLK2 kinase came to 3 nM; on CLK3 kinase, 142 nM; in experiment [2], 329 nM; in experiment [3] (setting [4]), 3290 nM. Besides, the Emax in experiment [1] turned out to be 101%; in experiment [2] it was 80.2%.

Consider `CC(C)C(=O)Nc1cncc(-c2ccc3[nH]nc(-c4nc5c(-c6ccccc6F)cncc5[nH]4)c3c2)c1` [compound 173], for which the EC50 on CLK2 kinase is 4 nM; on CLK3 kinase, 24 nM; in experiment [1], 30 nM; in experiment [2], at least 3000 nM; in experiment [3] (setting [4]) it was 4 nM. For the same compound, the values for the Emax in experiment [1] and in experiment [2] were 102% and 90.2%, respectively.

As for `O=C(Nc1cccnc1)c1n[nH]c2ccc(-c3cncc(CN4CC5CC(C4)O5)c3)cc12` [compound 101], the EC50 on CLK2 kinase is 1 nM; on CLK3 kinase it was 44 nM; in experiment [1], 900 nM; in experiment [2] it was at least 3000 nM; in experiment [3] (SW480) it was 67 nM. Besides, the figures for the Emax in experiment [1] and in experiment [2] were 121% and 45.7%, respectively.

`CN(C)C(=O)Nc1cncc(-c2cnc3[nH]nc(-c4nc5c(-c6cccc(F)c6)cncc5[nH]4)c3c2)c1` [compound 130]: the EC50 at CLK2 kinase is 3 nM; at CLK3 kinase, 18 nM; in experiment [2], 40.6 nM; in experiment [3] (setting [4]) it was 10 nM. The results for the Emax in experiment [1] and in experiment [2] were 68.1% and 60.5%, respectively.

As to `Cc1ccc(-c2nccc3[nH]c(-c4n[nH]c5ccc(-c6cncc(N)c6)nc45)nc23)s1` [compound 275], the EC50 at CLK2 kinase was 1 nM; on CLK3 kinase, 20 nM; in experiment [1], 10 nM; in experiment [2], at least 3000 nM; in experiment [3] (setting [4]), 45.5 nM. Besides, the Emax was 72.6% in experiment [1] and 58.4% in experiment [2].

On to `O=C1CCc2cccc(c2)-c2cncc3[nH]c(nc23)-c2n[nH]c3ccc(cc23)-c2cncc(c2)N1` [compound 619], for which the EC50 at CLK2 kinase was 2 nM; at CLK3 kinase, 29 nM; in experiment [1], 50 nM; in experiment [2], at least 3000 nM; in experiment [3] (setting [4]) it was 51.8 nM. Moreover, the Emax was determined as 225% in experiment [1] and 71.5% in experiment [2].

In the case of `CC(C)Oc1cncc(C(=O)Nc2c[nH]nc2C(=O)Nc2ccc(OC3CCN(C)CC3)nc2)c1` [compound 10], the EC50 worked out at 6 nM on CLK2 kinase; 1780 nM at CLK3 kinase; 2700 nM in experiment [1]; 1.5 nM in experiment [2]; 90.3 nM in experiment [3] (setting [4]). The Emax in experiment [1] was 140%; in experiment [2] it was 46.9%.

Turning to `CCNCc1cncc(-c2cnc3[nH]nc(-c4cc5c(-c6cc(F)cc(CNS(C)(=O)=O)c6)cncc5[nH]4)c3c2)c1` [compound 533], the EC50 was 2 nM at CLK2 kinase, 51 nM on CLK3 kinase, at least 3000 nM in experiment [2] and over 10000 nM in experiment [3] (setting [4]). Besides, the figures for the Emax in experiment [1] and in experiment [2] were 42.8% and 40.8%, respectively.

On to `CC(C)OCCCNC(=O)c1n[nH]c2ccc(-c3cccnc3)cc12` [compound 58], for which the EC50 was 10 nM at CLK2 kinase, 9840 nM on CLK3 kinase, 10.8 nM in experiment [2] and 464 nM in experiment [3] (setting [4]). Moreover, the Emax in experiment [1] came out at 92.5%; in experiment [2], 61.1%.

Take `O=C(Nc1cncc(-c2cnc3[nH]nc(-c4cc5c(-c6ccncc6)cncc5[nH]4)c3c2)c1)C1CCC1` [compound 394]: the EC50 was 3 nM at CLK2 kinase, 69 nM on CLK3 kinase, 17.9 nM in experiment [2] and over 10000 nM in experiment [3] (setting [4]). Further, the Emax turned out to be 43.5% in experiment [1] and 90.4% in experiment [2].

Consider `CCNCc1cncc(-c2cc3c(-c4cc5c(-c6cccnc6)cncc5[nH]4)n[nH]c3cn2)c1` [compound 367], for which the EC50 was 2 nM on CLK2 kinase; 214 nM at CLK3 kinase; 10 nM in experiment [1]; at least 3000 nM in experiment [2]; 3730 nM in experiment [3] (setting [4]). The results for the Emax in experiment [1] and in experiment [2] were 67.6% and 75.7%, respectively.

On to `CC(C)Nc1cncc(-c2ccc3[nH]nc(-c4nc5c(-c6cc(F)cc(NCCN(C)C)c6)cncc5[nH]4)c3n2)c1` [compound 284], for which the EC50 on CLK2 kinase is 1 nM; at CLK3 kinase, 25 nM; in experiment [1], 300 nM; in experiment [2] it was at least 3000 nM; in experiment [3] (setting [4]), 1660 nM. In addition, the Emax in experiment [1] was 96.8%; in experiment [2], 32.9%.

With `CN1CCCn2cc(nn2)-c2nccc3[nH]c(nc23)-c2n[nH]c3ccc(cc23)-c2cncc(c2)C1` [compound 621], the EC50 was 3 nM at CLK2 kinase; 26 nM on CLK3 kinase; 10 nM in experiment [1]; at least 3780 nM in experiment [2]; 338 nM in experiment [3] (setting [4]). Further, the Emax in experiment [1] was determined as 181%; in experiment [2], 46.5%.

As for `CC(C)CC(=O)Nc1cncc(-c2ccc3[nH]nc(-c4nc5c(-c6cccnc6)cncc5[nH]4)c3c2)c1` [compound 189], the EC50 at CLK2 kinase amounted to 8 nM; on CLK3 kinase, 26 nM; in experiment [1] it was 100 nM; in experiment [2], 111 nM; in experiment [3] (setting [4]) it was 12 nM. The Emax in experiment [1] came to 198%; in experiment [2] it was 100%.

Turning to `Cn1cc(-c2cc3c(C(=O)Nc4ccc(CN5CCCC5)cc4)n[nH]c3cc2F)cn1` [compound 107], the EC50 at CLK2 kinase is 1 nM; at CLK3 kinase, 90 nM; in experiment [2], at least 3000 nM; in experiment [3] (setting [4]) it was 242 nM. The values for the Emax in experiment [1] and in experiment [2] were 27.4% and 22.9%, respectively.

Take `O=C(Nc1c[nH]nc1C(=O)Nc1ccc(N2CCC(F)(F)C2)nc1)c1cncc(OC2CCNCC2)c1` [compound 12]: the EC50 on CLK2 kinase is 6 nM; at CLK3 kinase it was 6020 nM; in experiment [2] it was 280 nM; in experiment [3] (setting [4]), 2220 nM. Moreover, the results for the Emax in experiment [1] and in experiment [2] were 75.2% and 88.7%, respectively.

With `Fc1cccc(-c2cccc3[nH]c(-c4n[nH]cc4/C=C/c4cncc(CN5CCCC5)c4)nc23)c1` [compound 26], the EC50 at CLK2 kinase worked out at 1 nM; at CLK3 kinase it was 492 nM; in experiment [1] it was 2700 nM; in experiment [2], 1.4 nM; in experiment [3] (setting [4]), 82.1 nM. Also, the Emax was 81.7% in experiment [1] and 64.6% in experiment [2].

In the case of `CN1CCN(c2nccc3[nH]c(-c4n[nH]c5cc(F)c(-c6cnn(C)c6)cc45)nc23)CC1` [compound 219], the EC50 came to 1 nM at CLK2 kinase; 26 nM at CLK3 kinase; 30 nM in experiment [1]; 35.5 nM in experiment [2]; 85.7 nM in experiment [3] (setting [4]). In addition, the Emax in experiment [1] was 113%; in experiment [2], 87.3%.

Turning to `CN1CCC(n2cc(NC(=O)c3n[nH]c4ccc(-c5cnn(C)c5)cc34)cn2)CC1` [compound 106], the EC50 at CLK2 kinase is 1 nM; at CLK3 kinase, 55 nM; in experiment [2], 818 nM; in experiment [3] (setting [4]), 79 nM. The Emax was found to be 23.6% in experiment [1] and 100% in experiment [2].

Regarding `O=C1COc2cccc(c2)-c2cncc3[nH]c(nc23)-c2n[nH]c3ccc(cc23)-c2cncc(c2)N1` [compound 620], the EC50 on CLK2 kinase is 3 nM; on CLK3 kinase it was 16 nM; in experiment [1] it was 100 nM; in experiment [2] it was 37.4 nM; in experiment [3] (setting [4]), 86.8 nM. Further, the Emax in experiment [1] amounted to 185%; in experiment [2], 37.1%.

In the case of `CC(C)NC(=O)c1n[nH]c2ccc(-c3cncc(CN4CCC(F)(F)CC4)c3)cc12` [compound 75], the EC50 is 13 nM on CLK2 kinase; 4020 nM at CLK3 kinase; 2700 nM in experiment [1]; 8 nM in experiment [2]; 47.1 nM in experiment [3] (setting [4]). Besides, the Emax in experiment [1] is 104%; in experiment [2], 95.1%.

For `O=C(Nc1cc2cc(-c3cncc(NC4CCNC[C@@H]4F)n3)ccc2cn1)C1CC1` (some centres unmarked) [compound 603], the EC50 on CLK2 kinase was 1 nM; at CLK3 kinase, 11 nM; in experiment [1], 2700 nM; in experiment [2], at least 3000 nM; in experiment [3] (setting [4]), 9.5 nM. The Emax was 68% in experiment [1] and 55.5% in experiment [2].

As to `Cc1ncc(C(=O)Nc2cc3nc(-c4cnc(C)n4C)ccc3cn2)s1` [compound 611], the EC50 at CLK2 kinase was found to be 3 nM; at CLK3 kinase it was 31 nM; in experiment [2], 8.7 nM; in experiment [3] (setting [4]), 107 nM. Moreover, the Emax in experiment [2] is 68.3%.
